In US20180296630A1, “METHODS AND COMPOSITIONS FOR PREVENTING OR TREATING OPHTHALMIC CONDITIONS” (Stealth BioTherapeutics Corp, priority 2012, published 2018):

How the values were obtained:
STZ diabetic rats = assay: Lens opacity (cataract) in STZ rat model; type: in vivo, Sprague-Dawley rat; conditions: 10 mg (Table 11: 10 mg/kg s.c.)
Protocol: A rat model of diabetes was established by combination of 6-week HFD and low dose of STZ (30 mg/kg) injection or a single high dose of STZ (65 mg/kg) in SD rats. See generally, K. Srinivasan, B. Viswanad, Lydia Asrat, C. L. Kaul and P. Ramarao, Combination of high-fat diet-fed and low-dose streptozotocin-treated rat: A model for type 2 diabetes and pharmacological screening, Pharmacological Research, 52(4): 313-320, 2005. Rats of the same batch fed with normal chow (NRC) were used as a control.

GTM3 cells = assay: ROS production, sustained oxidative injury by H2O2, GTM3 cells; type: cell-based, human; conditions: then 200 μM H2O2 24 h
Protocol: (§1) The effects of D-Arg-2′,6′-Dmt-Lys-Phe-NH2 on sustained oxidative injury of GTM and HTM cells was examined. Cells were pre-treated with 10^−6, 10^−7, 10^−8M of D-Arg-2′,6′-Dmt-Lys-Phe-NH2 for 1 h, and then incubated with 200 μM H2O2 for 24 h to investigate the protective effect of D-Arg-2′,6′-Dmt-Lys-Phe-NH2 in sustained oxidative stress.

iHTM cells = assay: ROS production, sustained oxidative injury by H2O2, iHTM cells; type: cell-based, human; conditions: then 200 μM H2O2 24 h
Protocol: as §1

GTM cells = assay: Morphology of GTM cells exposed to H2O2 (inverted phase contrast microscopy); type: cell-based, human; conditions: peptide prior to H2O2, concentration-dependent and time-dependent
From the text: The morphology of GTM cells was investigated when those cells were exposed to D-Arg-2′,6′-Dmt-Lys-Phe-NH2 prior to administration of hydrogen peroxide. […] That is, hydrogen peroxide mediated cell loss and rounding was diminished in cells exposed to D-Arg-2′,6′-Dmt-Lys-Phe-NH2 peptide. The mitochondrial membrane potential (Δψm) of HTM and GTM cells was also investigated when those cells were exposed to D-Arg-2′,6′-Dmt-Lys-Phe-NH2 prior to administration of hydrogen peroxide. The mitochondrial membrane potential was measured using confocal microscopy of cells labeled with tetramethylrhodamine methyl ester (TMRM, 500 nM×30 min) (FIG. 19-21). […] As such, D-Arg-2′,6′-Dmt-Lys-Phe-NH2 provides a protective effect against oxidative stress in GTM cells.

[1] = test system: primary human retinal pigment epithelial (RPE) cells; assay: Viability of primary RPE cells exposed to tBHP (MTT); type: cell-based; conditions: preincubated 4 h with different concentrations, then tBHP 6 h
Protocol: Next, the viability of primary RPE cells was tested in the presence of tBHP and various concentrations of D-Arg-2′,6′-Dmt-Lys-Phe-NH2. Cells were plated at 10,000 cells per well in a 96-well plate and cultured for 24 h, then starved for 24 h. After that, cells were exposed to increasing concentrations of tBHP (FIG. 23A), or preincubated for 4 h with different concentrations of D-Arg-2′,6′-Dmt-Lys-Phe-NH2, then stimulated with tBHP for 6 h (FIG. 23B). […] Intracellular ROS production in three groups of RPE cells was also examined using FACS analysis. […] Three different concentration of D-Arg-2′,6′-Dmt-Lys-Phe-NH2 groups were analyzed. The ratio of red to green in 500 μM tBHP for the 3 h group is 1.08, the ratio of red to green in 10 nM D-Arg-2′,6′-Dmt-Lys-Phe-NH2 for 4 h+500 tBHP for 3 h group is 1.25; the ratio of red to green in 100 nM D-Arg-2′,6′-Dmt-Lys-Phe-NH2 for 4 hr+500 μM tBHP for 3 h group is 1.4; and the ratio of red to green in 1 μM D-Arg-2′,6′-Dmt-Lys-Phe-NH2 for 4 h+500 μM tBHP for 3 h group is […]. […] FIG. 33A: Control group, R/G is 3.63±0.24; FIG. 33B: 500 μM tBHP for 3 h group, R/G is 1.08±0.11; FIG. 33C: 1 μM D-Arg-2′,6′-Dmt-Lys-Phe-NH2 for 4 h+500 μM tBHP for 3 h group, R/G is 2.38±0.18. FIG. 33D is a chart comparing the fluorescence ratio for the different groups. *P<0.01, C vs. B.

D-Arg-2′,6′-Dmt-Lys-Phe-NH2
Opacity degree ++++, number in group (STZ diabetic rats): 1
Opacity degree +++, number in group (STZ diabetic rats): 0
Opacity degree ++, number in group (STZ diabetic rats): 0
Opacity degree +, number in group (STZ diabetic rats): 2
Opacity degree −, number in group (STZ diabetic rats): 2
Percentage of opacity (STZ diabetic rats): 60.0%
Percentage of severe opacity (STZ diabetic rats): 20.0%
ROS Production (GTM3 cells; 0.01 μM pre-treatment 1 h): 133.70 ± 3.24 %
ROS Production (GTM3 cells; 0.1 μM pre-treatment 1 h): 68.91 ± 8.62 %
ROS Production (GTM3 cells; 1 μM pre-treatment 1 h): 47.40 ± 1.81 %
ROS Production (iHTM cells; 0.01 μM pre-treatment 1 h): 114.30 ± 3.89 %
ROS Production (iHTM cells; 0.1 μM pre-treatment 1 h): 82.89 ± 3.70 %
ROS Production (iHTM cells; 1 μM pre-treatment 1 h): 36.91 ± 1.47 %
hydrogen peroxide-mediated morphological changes (cell loss and rounding) (GTM cells): protects cells from hydrogen peroxide-mediated morphological changes
cell viability in response to tBHP [1]: enhanced
